How the values were obtained:
MDA-MB-231 = conditions: read-out: IC-50, MDA-MB-231; unit printed only in neighbouring columns; ref 39b; cited from earlier work
BT-549 = conditions: read-out: IC-50, BT-549; unit printed only in neighbouring columns; ref 39b; cited from earlier work
MCF-7 = conditions: read-out: IC-50, MCF-7; unit printed only in neighbouring columns; ref 39b; cited from earlier work
[1] = test system: induced pluripotent stem cell derived cardiomyocytes (iPSC); experiment: MTT viability assay, IC-50; assay type: cell-based, human
[2] = 15N NMR chemical shift mapping of Def1 binding to GlcCer; conditions: 15N-labeled Def1, chemical shift perturbation, T1, 15N-1H NOE; N=3
thioredoxin (Trx) = target: T1, thioredoxin (Trx) (Homo sapiens, UniProt P10599); experiment: Thioredoxin redox Western blot; assay type: cell-based; conditions: 20 μM Def1, Doxorubicin resistant MDA-MB-231-R cells, N=4
T1 sequence (P10599 1-105): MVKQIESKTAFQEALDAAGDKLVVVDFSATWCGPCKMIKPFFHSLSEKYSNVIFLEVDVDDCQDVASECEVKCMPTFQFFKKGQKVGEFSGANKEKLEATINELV

MCF-10A Epithelial Cells = experiment: MTT viability assay, IC-50; assay type: cell-based; conditions: normal epithelial breast cells, 24 h
MCF-7R cells = experiment: Ceramide release by LC-MS/MS; assay type: cell-based; conditions: 20 μM, 6 hrs, Doxorubicin resistant MCF-7R cells, n=4, preliminary
ASK1 = experiment: Immunoblot of ASK1 Thr845 phosphorylation; assay type: cell-based; conditions: 50 μM, 60 minutes, MDA-MB-231 cells, vs solvent control and NAC control, N=4
[3] = test system: Bone Marrow Cells MSC-001F; experiment: Viability assay, IC-50; assay type: cell-based; conditions: normal cells
SKOV3 cells = experiment: Confocal uptake of NBD-Def1; assay type: cell-based; conditions: confocal microscopy, 20, 6.6 or 2.2 ug/ml, 15 min, 37C, N=4
[4] = test system: MCF-10A normal epithelial breast cells; experiment: Confocal uptake of NBD-Def1; assay type: cell-based; conditions: confocal microscopy, 5 times higher dose (200 mg/mL)
fibroblasts cells = experiment: Confocal uptake of NBD-Def1; assay type: cell-based; conditions: confocal microscopy, 5 times higher dose (200 mg/mL)
MDA-MB-231R cells = experiment: Confocal uptake of NBD-Def1; assay type: cell-based; conditions: confocal microscopy, 20, 6.6 or 2.2 ug/ml, 15 min, 37C, N=4

hBD-1: Human Beta Defensin (hBD-1) with three S-S bonds (DHYNCVSSGGQCLYSACPIFTKIQGTCYRGKAKCCK; Beta-defensin 1; UniProt P60022 33-68, looked up)
IC50 (MDA-MB-231): 18 µM | IC50 (BT-549): 17 µM | IC50 (MCF-7): 21 µM

COc1cccc2c1C(=O)c1c(O)c3c(c(O)c1C2=O)C[C@@](O)(C(=O)CO)C[C@@H]3O[C@H]1C[C@H](N)[C@H](O)[C@H](C)O1 [Doxorubicin, reference compound]
more potency for cardiomyocytes and bone marrow cells ([1]; in contrast to Def1): 10-15 times

Medicago sativa Defensin 1 [Def1]
binding to GlcCer [2]: binds to GlcCer at two regions | oxidation of Trx (new band at 28 KDa) (thioredoxin (Trx)): oxidation of Trx | IC-50, MCF-10A Epithelial Cells (MCF-10A Epithelial Cells): > 200 µM | accumulation of ceramide (MCF-7R cells): enhanced accumulation of ceramide | IC-50, iPSC (induced pluripotent stem cell derived cardiomyocytes) ([1]; human iPSC cardiomyocytes, MTT, 24 h): > 180 µM | phosphorylation of Thr845 residue of ASK1 (ASK1): significant increase | IC-50, Bone Marrow Cells MSC-001F [3]: > 150 µM

6-((N-(7-nitrobenz-2-oxa-1, 3-diazol-4-yl) amino) hexanoyl (NBD)-Def1 [NBD-Def1]
uptake, SKOV3 (SKOV3 cells): concentration dependent uptake | uptake, normal epithelial breast cells MCF-10A [4]: did not pick up | uptake, fibroblasts (fibroblasts cells): did not pick up | uptake, MDA-MB-231R (MDA-MB-231R cells): concentration dependent uptake

Reference: article doi:10.1101/2021.02.13.431112v1 (bioRxiv, 2021)
